Data published in article PMC6704710, “Preclinical evaluation of 3D185, a novel potent inhibitor of FGFR1/2/3 and CSF-1R, in FGFR-dependent and macrophage-dominant cancer models” (Journal of Experimental & Clinical Cancer Research : CR, 2019).

What was measured:
ChaK1(h) = molecular target: T1, ChaK1(h) (Homo sapiens, UniProt Q96QT4); experiment: Eurofins kinase panel; assay type: biochemical; settings: read-out: Inhibition rate (%)
T1 construct: purchased Eurofins (KinaseProfiler)

CDK3/cyclinE(h) = molecular target: T2, CDK3/cyclinE(h) (Homo sapiens, UniProt Q00526); experiment: Eurofins kinase panel; assay type: biochemical; settings: read-out: Inhibition rate (%)
T2 construct: purchased Eurofins (KinaseProfiler)
T2 sequence (Q00526 whole entry): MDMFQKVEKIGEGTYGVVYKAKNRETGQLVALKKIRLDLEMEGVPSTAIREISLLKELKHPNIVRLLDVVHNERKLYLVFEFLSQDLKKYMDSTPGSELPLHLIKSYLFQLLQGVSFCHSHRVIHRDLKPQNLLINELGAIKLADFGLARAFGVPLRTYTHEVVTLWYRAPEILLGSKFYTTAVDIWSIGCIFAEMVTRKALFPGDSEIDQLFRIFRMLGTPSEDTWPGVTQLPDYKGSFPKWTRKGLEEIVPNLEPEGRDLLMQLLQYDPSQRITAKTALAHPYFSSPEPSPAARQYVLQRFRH
T2 sequence (P24864 whole entry partner): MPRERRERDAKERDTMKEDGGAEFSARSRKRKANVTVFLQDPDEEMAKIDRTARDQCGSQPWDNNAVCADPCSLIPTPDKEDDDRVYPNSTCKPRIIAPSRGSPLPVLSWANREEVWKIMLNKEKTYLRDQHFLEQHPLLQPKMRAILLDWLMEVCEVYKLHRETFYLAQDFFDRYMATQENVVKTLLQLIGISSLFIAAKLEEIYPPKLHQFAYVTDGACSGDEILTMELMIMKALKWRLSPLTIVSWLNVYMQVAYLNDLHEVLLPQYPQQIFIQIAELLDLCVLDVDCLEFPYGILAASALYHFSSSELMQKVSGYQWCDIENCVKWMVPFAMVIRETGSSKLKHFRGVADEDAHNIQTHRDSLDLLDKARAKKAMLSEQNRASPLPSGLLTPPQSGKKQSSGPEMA
Description: (§1) Active FGFR1–4, VEGFR1, KDR, VEGFR3, PDGFRα and PDGFRβ proteins were purchased from Eurofins (Fremont, United States), and kinase activity was assessed using ELISA, as previously reported. […]. Increasing concentrations of ATP were diluted for the kinase reaction in the ATP competition assay. CSF-1R kinase activity was analyzed using the Z’-LYTE™ Kinase Assay Kit (Thermo Fisher, United States). The assay formats are described in the SelectScreen Kinase Profiling Service Zlyte protocol. IC50 values were calculated by dose-response curve fitting using Prism (Graph Pad).

TTK(h) = molecular target: T3, TTK(h) (Homo sapiens, UniProt P33981); experiment: Eurofins kinase panel; assay type: biochemical; settings: read-out: Inhibition rate (%)
T3 construct: purchased Eurofins (KinaseProfiler)
T3 sequence (P33981 1-857): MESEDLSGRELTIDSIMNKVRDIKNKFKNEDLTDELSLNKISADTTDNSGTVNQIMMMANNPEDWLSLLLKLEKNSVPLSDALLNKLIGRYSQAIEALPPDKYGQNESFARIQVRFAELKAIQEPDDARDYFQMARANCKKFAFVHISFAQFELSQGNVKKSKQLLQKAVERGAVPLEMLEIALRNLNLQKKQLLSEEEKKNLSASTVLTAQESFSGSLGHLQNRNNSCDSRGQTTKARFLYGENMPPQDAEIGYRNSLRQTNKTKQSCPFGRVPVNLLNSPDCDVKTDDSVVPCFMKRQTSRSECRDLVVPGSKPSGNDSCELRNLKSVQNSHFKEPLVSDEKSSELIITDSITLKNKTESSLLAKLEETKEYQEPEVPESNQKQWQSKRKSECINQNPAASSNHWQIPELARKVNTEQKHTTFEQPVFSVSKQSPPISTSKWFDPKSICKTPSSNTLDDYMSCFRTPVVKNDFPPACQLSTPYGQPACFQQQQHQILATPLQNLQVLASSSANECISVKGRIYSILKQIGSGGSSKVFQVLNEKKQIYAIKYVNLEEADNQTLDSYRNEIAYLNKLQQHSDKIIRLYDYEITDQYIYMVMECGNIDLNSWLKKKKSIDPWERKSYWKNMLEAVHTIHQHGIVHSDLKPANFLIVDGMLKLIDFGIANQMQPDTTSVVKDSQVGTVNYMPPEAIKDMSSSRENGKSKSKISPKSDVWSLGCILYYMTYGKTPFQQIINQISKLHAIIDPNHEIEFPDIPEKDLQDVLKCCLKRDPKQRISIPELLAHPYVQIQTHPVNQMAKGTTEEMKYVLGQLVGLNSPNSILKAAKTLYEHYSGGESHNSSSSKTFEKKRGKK
Description: as §1

Flt3(D835Y)(h) = molecular target: T4, Flt3(D835Y)(h) (Homo sapiens, UniProt P36888, D835Y); experiment: Eurofins kinase panel; assay type: biochemical; settings: read-out: Inhibition rate (%)
T4 construct: purchased Eurofins (KinaseProfiler)
T4 sequence (P36888 27-993 D835Y): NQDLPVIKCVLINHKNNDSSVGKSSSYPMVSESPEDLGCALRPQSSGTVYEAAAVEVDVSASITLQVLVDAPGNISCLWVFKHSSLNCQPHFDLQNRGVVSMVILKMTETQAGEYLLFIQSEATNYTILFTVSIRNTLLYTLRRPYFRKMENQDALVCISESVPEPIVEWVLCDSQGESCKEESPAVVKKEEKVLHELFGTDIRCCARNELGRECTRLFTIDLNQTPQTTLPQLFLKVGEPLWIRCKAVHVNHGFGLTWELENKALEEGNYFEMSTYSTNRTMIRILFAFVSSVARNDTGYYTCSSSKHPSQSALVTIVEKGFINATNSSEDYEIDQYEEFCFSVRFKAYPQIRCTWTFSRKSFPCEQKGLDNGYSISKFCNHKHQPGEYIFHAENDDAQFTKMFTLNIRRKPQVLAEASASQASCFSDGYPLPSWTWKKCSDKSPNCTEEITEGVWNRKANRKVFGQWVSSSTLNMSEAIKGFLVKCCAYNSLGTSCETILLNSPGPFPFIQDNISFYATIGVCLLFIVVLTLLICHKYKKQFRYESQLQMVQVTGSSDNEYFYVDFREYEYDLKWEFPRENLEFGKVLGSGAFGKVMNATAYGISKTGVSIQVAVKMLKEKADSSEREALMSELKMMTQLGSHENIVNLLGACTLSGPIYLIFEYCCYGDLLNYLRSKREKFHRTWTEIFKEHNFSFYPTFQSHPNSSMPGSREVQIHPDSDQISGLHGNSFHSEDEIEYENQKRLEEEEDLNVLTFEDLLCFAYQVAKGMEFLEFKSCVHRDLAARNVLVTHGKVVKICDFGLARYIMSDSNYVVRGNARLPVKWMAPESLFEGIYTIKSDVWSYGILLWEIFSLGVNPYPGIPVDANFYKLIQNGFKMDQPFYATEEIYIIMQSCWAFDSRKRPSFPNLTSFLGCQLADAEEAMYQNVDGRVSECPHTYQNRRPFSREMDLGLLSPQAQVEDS
Description: as §1

MSSK1(h) = molecular target: T5, MSSK1(h) (Homo sapiens, UniProt Q9UPE1); experiment: Eurofins kinase panel; assay type: biochemical; settings: read-out: Inhibition rate (%)
T5 construct: purchased Eurofins (KinaseProfiler)
T5 sequence (Q9UPE1 whole entry): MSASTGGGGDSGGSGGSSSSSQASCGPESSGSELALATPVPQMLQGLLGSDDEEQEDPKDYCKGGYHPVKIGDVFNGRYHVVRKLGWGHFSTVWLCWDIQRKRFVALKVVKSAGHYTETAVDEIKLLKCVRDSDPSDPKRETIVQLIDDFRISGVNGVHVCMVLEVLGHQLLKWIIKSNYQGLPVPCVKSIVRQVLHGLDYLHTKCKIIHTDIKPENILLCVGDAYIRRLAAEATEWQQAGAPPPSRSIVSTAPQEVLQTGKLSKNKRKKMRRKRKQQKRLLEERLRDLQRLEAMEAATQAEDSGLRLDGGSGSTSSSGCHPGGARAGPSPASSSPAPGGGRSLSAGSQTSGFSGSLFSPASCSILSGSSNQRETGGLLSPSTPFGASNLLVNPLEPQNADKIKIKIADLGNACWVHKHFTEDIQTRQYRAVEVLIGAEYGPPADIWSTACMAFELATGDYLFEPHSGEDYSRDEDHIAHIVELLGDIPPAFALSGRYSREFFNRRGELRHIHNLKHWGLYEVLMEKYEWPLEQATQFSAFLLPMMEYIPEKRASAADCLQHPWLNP
Description: as §1

Lck(h) activated = molecular target: T6, Lck(h) activated (Homo sapiens, UniProt P06239); experiment: Eurofins kinase panel; assay type: biochemical; settings: read-out: Inhibition rate (%)
T6 construct: purchased Eurofins (KinaseProfiler)
T6 sequence (P06239 whole entry): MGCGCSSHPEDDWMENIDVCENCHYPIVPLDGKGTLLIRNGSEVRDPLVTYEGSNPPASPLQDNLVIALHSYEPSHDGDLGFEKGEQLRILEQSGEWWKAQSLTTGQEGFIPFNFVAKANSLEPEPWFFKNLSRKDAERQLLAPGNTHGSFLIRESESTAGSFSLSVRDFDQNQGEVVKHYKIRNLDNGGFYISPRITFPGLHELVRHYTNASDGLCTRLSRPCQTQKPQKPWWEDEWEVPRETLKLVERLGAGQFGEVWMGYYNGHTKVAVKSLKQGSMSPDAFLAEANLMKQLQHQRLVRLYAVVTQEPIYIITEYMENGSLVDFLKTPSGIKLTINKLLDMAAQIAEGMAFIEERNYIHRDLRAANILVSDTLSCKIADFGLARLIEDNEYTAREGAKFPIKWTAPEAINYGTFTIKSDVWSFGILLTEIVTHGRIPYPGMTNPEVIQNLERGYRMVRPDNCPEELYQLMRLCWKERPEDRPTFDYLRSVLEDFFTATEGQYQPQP
Description: as §1

M-NFS-60 = experiment: Cell proliferation assay; assay type: cell-based, mouse; settings: Mus musculus; 72 h, mean ± SD
Description: The cancer cell lines indicated in Figure 3 were seeded in 96-well plates at a low density in growth medium. The next day, appropriate controls or the designated concentrations of the compounds were added to each well, and the cells were incubated for 72 h. HUVECs (passage 3) were seeded in 96-well plates in growth medium overnight and transferred to serum-free medium for 24 h. The following day, appropriate controls or the designated concentrations of the compounds were added to each well, and 100 ng/mL growth factor (bFGF or VEGF) was added to the indicated wells. The cells were incubated for 48 h. Finally, cell proliferation was determined using a sulforhodamine B (SRB) assay or a cell counting kit-8 (CCK-8) assay. […] IC50 values for proliferation curves were calculated using a 4-parameter logistic nonlinear regression model with SoftMax Pro Software (Molecular Devices, San Jose, USA).

T1 sequence (Q96QT4 whole entry): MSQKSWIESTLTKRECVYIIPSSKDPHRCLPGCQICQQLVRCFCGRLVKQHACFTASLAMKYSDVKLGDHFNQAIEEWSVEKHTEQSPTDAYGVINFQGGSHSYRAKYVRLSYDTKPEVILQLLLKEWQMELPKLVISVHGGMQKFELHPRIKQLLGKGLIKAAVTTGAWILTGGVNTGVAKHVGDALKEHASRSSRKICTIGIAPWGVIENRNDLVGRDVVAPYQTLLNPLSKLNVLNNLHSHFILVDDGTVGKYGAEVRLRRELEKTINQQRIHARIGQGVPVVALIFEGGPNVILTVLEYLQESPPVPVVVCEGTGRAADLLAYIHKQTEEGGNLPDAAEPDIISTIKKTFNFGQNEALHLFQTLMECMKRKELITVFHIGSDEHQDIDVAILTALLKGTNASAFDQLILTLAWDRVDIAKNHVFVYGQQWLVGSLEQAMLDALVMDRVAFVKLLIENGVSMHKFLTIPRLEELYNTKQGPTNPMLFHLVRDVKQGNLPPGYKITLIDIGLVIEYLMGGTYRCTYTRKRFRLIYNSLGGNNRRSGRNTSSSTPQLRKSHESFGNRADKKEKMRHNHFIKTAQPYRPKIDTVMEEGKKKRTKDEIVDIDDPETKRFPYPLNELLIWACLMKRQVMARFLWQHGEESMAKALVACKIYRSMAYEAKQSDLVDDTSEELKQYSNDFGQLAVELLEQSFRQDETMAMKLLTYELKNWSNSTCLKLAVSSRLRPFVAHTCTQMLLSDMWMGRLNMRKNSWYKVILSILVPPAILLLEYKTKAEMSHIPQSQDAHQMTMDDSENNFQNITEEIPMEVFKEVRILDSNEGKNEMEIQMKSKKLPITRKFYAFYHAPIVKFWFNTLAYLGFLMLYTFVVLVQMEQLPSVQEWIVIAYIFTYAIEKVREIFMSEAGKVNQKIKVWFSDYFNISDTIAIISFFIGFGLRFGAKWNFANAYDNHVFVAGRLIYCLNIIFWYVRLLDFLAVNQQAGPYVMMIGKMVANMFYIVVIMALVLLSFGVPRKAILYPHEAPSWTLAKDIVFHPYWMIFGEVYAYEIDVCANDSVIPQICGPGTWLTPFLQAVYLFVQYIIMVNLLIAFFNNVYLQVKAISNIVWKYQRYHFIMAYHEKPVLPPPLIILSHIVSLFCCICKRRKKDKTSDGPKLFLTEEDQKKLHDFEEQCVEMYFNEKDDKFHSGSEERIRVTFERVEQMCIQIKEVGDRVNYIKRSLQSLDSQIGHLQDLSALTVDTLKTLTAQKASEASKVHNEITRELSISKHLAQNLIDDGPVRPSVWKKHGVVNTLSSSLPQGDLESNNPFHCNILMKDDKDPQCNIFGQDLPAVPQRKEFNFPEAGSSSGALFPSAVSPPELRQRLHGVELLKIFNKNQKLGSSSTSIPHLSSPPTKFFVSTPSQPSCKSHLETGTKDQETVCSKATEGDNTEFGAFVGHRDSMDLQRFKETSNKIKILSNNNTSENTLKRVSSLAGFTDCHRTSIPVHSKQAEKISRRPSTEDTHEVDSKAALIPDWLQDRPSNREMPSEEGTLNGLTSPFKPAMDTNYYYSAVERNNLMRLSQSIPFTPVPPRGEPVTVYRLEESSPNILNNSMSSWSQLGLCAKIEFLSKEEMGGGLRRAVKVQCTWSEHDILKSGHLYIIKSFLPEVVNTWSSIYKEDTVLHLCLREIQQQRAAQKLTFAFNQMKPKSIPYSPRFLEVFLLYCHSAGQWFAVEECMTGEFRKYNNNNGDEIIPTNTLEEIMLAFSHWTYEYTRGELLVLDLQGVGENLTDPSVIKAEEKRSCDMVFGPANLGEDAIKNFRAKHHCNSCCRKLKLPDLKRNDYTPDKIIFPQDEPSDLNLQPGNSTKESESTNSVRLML

Question: For COc1cc(OC)c(Cl)c(-c2ccc3c(NC(=O)c4ccc(N5CCNC(C)(C)C5)cc4)n[nH]c3n2)c1Cl [3D185], which inhibition at 0.01 µM (ChaK1(h); 10 nM) is on record?
Answer: The inhibition at 0.01 µM was 2%.

Question: What about the inhibition at 0.1 µM (ChaK1(h); 100 nM) of the same compound?
Answer: Its inhibition at 0.1 µM is -10%.

Question: And the inhibition at 1 µM (ChaK1(h); 1000 nM)?
Answer: The inhibition at 1 µM was 8%.

Question: And the inhibition at 0.01 µM (CDK3/cyclinE(h); 10 nM)?
Answer: Its inhibition at 0.01 µM is 1%.

Question: And the inhibition at 0.1 µM (CDK3/cyclinE(h); 100 nM)?
Answer: The inhibition at 0.1 µM was -11%.

Question: What about the inhibition at 1 µM (CDK3/cyclinE(h); 1000 nM) of the same compound?
Answer: The inhibition at 1 µM was -19%.

Question: What about the inhibition at 0.01 µM (TTK(h); 10 nM) of the same compound?
Answer: The inhibition at 0.01 µM was 5%.

Question: What about the inhibition at 0.1 µM (TTK(h); 100 nM) of the same compound?
Answer: The inhibition at 0.1 µM was -2%.

Question: What about the inhibition at 1 µM (TTK(h); 1000 nM) of the same compound?
Answer: Its inhibition at 1 µM is 12%.

Question: What about the inhibition at 0.01 µM (Flt3(D835Y)(h); 10 nM) of the same compound?
Answer: Its inhibition at 0.01 µM is -1%.

Question: And the inhibition at 0.1 µM (Flt3(D835Y)(h); 100 nM)?
Answer: Its inhibition at 0.1 µM is -6%.

Question: And the inhibition at 1 µM (Flt3(D835Y)(h); 1000 nM)?
Answer: Its inhibition at 1 µM is 5%.

Question: And the inhibition at 0.01 µM (MSSK1(h); 10 nM)?
Answer: The inhibition at 0.01 µM was 3%.

Question: And the inhibition at 0.1 µM (MSSK1(h); 100 nM)?
Answer: The inhibition at 0.1 µM was 11%.

Question: What about the inhibition at 1 µM (MSSK1(h); 1000 nM) of the same compound?
Answer: Its inhibition at 1 µM is 18%.

Question: What about the inhibition at 0.01 µM (Lck(h) activated; 10 nM) of the same compound?
Answer: The inhibition at 0.01 µM was 16%.

Question: What about the inhibition at 0.1 µM (Lck(h) activated; 100 nM) of the same compound?
Answer: Its inhibition at 0.1 µM is 59%.

Question: What about the inhibition at 1 µM (Lck(h) activated; 1000 nM) of the same compound?
Answer: Its inhibition at 1 µM is 92%.

Question: And the IC50 (M-NFS-60)?
Answer: The IC50 was 16.7 ± 2.5 nM.
